Measurements published in patent US20220305121A1, “N-ARYL SULFONAMIDE DERIVATIVES AS VACCINE ADJUVANT” (The Regents of the University of California, priority 2019, published 2022).
“Also recorded” adds a separate entry of the source.

Tests used:
Type in all cases: cell-based
NF-κB and ISRE = NF-κB and ISRE reporter assays (primary screens), statements in words for both assays; conditions: with LPS or IFN-α as primary stimulus; compared to compound 1
Protocol: (§1) THP1-Blue™ NF-κB cells were plated in 96-well plates at 10^5 cells/well in 100 μl RPMI supplemented with 10% fetal bovine serum (FBS, Omega Scientific, Inc., Tarzana, Calif.), 100 U/mL penicillin, 100 μg/ml streptomycin (Thermo Fisher Scientific) and Normocin (Invivogen). LPS was prepared in assay medium at a concentration of 20 μg/mL. Tested compounds were dissolved in DMSO at 1 mM as a stock solution and were further diluted in the LPS solution to a final concentration of 10 μM. 100 μL of this solution was then transferred to the plated cells to obtain a final concentration of LPS at 10 μg/mL and compound at 5 μM ([…]). The culture supernatants were harvested after a 20 hour incubation period, SEAP activity in the culture supernatants was determined by a colorimetric assay using QuantiBlue (Invivogen). Plate absorbance was read at 630 nm using a Tecan Infinite M200 plate reader (Männedorf, Switzerland). The SEAP concentration was directly proportional to NF-κB activity, which was 2-point normalized to yield activity of compound 1+LPS as 200% and activity for LPS as 100%.
(§2) ISRE-bla THP-1 cells were plated in 96-well plates at 5×10^4 cells/well in 50 μl RPMI supplemented with 10% dialyzed FBS (Atlanta Biologicals, Inc., GA), 0.1 mM nonessential amino acids, 1 mM sodium pyruvate, 100 U/mL penicillin and 100 μg/ml streptomycin. Type I IFN-α (R&D Systems, #11200-2) solution was prepared in assay medium at a concentration of 200 U/mL Tested compounds were dissolved in DMSO at 1 mM and were further diluted in the IFN-α solution to a final concentration of 10 μM. 50 μL of this solution was then transferred to the plated cells to obtain a final concentration of IFN-α at 100 U/mL and compound at 5 μM ([…]), The cells were incubated for 16 hours, after which 20 μL of 6×LiveBLAzer™ FRET B/G Substrate (CCF4-AM) mixture (prepared according to the manufacturer's instructions) was added to each well, Plates were incubated at room temperature in the dark for 3 hours. Fluorescence was measured on a Tecan Infinite M200 plate reader at an excitation wavelength of 405 nm, and emission wavelengths of 465 nm and 535 nm. Background values (cell free wells at the same fluorescence wavelength) were subtracted from the raw fluorescence intensity values and the emission ratios were calculated as the ratio of background subtracted fluorescence intensities at 465 nm to background subtracted fluorescence intensities at 535 nm. The ISRE activity values for these compounds were 2-point normalized to yield activity of compound 1+IFN-α as 200% and activity for IFN-α as 100%.
(§3) Measurement of NF-κB Activation Using THP1-Blue NF-κB Cells. THP1-Blue NF-κB cells were plated in 96-well plates at 10^5 cells/well in 100 μL of RPMI supplemented with 10% fetal bovine serum (FBS, Omega Scientific, Inc., Tarzana, Calif.), 100 U/mL penicillin, 100 μg/mL streptomycin (Thermo Fisher Scientific), and Normocin (Invivogen). LPS was prepared in assay medium at a concentration of 20 μg/mL. Tested compounds were dissolved in DMSO at 1 mM as a stock solution and were further diluted in the LPS solution to a final concentration of 10 μM. 100 μL of this solution was then transferred to the plated cells to obtain a final concentration of LPS at 10 μg/mL and compound at 5 μM ([…]). The culture supernatants were harvested after a 20 hours incubation period. SEAP activity in the culture supernatants was determined by a colorimetric assay using QuantiBlue (Invivogen). Plate absorbance was read at 630 nm using a Tecan Infinite M200 plate reader (Mannedorf, Switzerland). The SEAP concentration was directly proportional to NF-κB activity, which was two-point normalized to yield activity of compound 1+LPS as 200% and activity for LPS as 100%.
Measurement of ISRE Activity in ISRE-bla THP-1 Cells. […]

ISRE = assay: Measurement of ISRE activity in ISRE-bla THP-1 cells (FRET, IFN-α as primary stimulus); conditions: compound 5 μM + IFN-α 100 U/mL, 16 hours, two point normalized: compound 1 + IFN-α = 200%, IFN-α = 100%, mean; for activity at 5 µM: Homo sapiens, THP-1, read-out: ISRE % Activation
Protocol: as §2
Measurement of ISRE Activity in ISRE-bla THP-1 Cells. ISREbla THP-1 cells were plated in 96-well plates at 5×10^4 cells/well in 50 μL of RPMI supplemented with 10% dialyzed FBS (Atlanta Biologicals, Inc., GA), 0.1 mM nonessential amino acids, 1 mM sodium pyruvate, 100 U/mL penicillin, and 100 μg/mL streptomycin. Type I IFN-α (R&D Systems, no. 11200-2) solution was prepared in assay medium at a concentration of 200 U/mL. Tested compounds were dissolved in DMSO at 1 mM and were further diluted in the IFN-α solution to a final concentration of 10 μM. 50 μL of this solution was then transferred to the plated cells to obtain a final concentration of IFN-α at 100 U/mL and compound at 5 μM ([…]). The cells were incubated for 16 hours, after which 20 μL of 6×LiveBLAzer FRET B/G substrate (CCF4-AM) mixture (prepared according to the manufacturer's instructions) was added to each well. Plates were incubated at room temperature in the dark for 3 hours. Fluorescence was measured on a Tecan Infinite M200 plate reader at an excitation wavelength of 405 nm and emission wavelengths of 465 and 535 nm. Background values (cell free wells at the same fluorescence wavelength) were subtracted from the raw fluorescence intensity values and the emission ratios were calculated as the ratio of background subtracted fluorescence intensities at 465 nm to background subtracted fluorescence intensities at 535 nm. The ISRE activity values for these compounds were two-point normalized to yield activity of compound 1+IFN-α as 200% and activity for IFN-α as 100%.

NF-κB = assay: Measurement of NF-κB activation using THP1-Blue NF-κB cells (SEAP reporter, LPS as primary stimulus); conditions: compound 5 μM + LPS, 20 hour incubation; two point normalized: compound 1 + LPS = 200%, LPS = 100%; mean
Protocol: as §1, §3

THP-1 cells = assay: Cell viability assay (MTT); conditions: compound 5 μM, 18 hours incubation; normalized to DMSO as 100%; mean
Protocol: THP-1 cells were plated in 96-well plates (10^5 cells/well) in 100 μL RPMI supplemented with 10% FBS, 100 U/mL penicillin and 100 μg/ml streptomycin. Compounds were dissolved in DMSO at 1 mM stock solution and were further diluted to 10 μM in the assay medium. 100 μL of this solution was added to the cells to obtain a final compound concentration of 5 μM ([…]). After 18 hours incubation, a solution of MTT in assay media (0.5 mg/mL) was added to each well and further incubated for 4 to 6 hours, followed by addition of cell lysis buffer (15% w/v SDS and 0.12% v/v 12N HCl aqueous solution), incubated overnight, and then absorbance measured at 570 nm using 650 nm as reference using Tecan Infinite M200 plate reader.
Cell Viability Assay. THP-1 cells were plated in 96-well plates (10^5 cells/well) in 100 μL RPMI supplemented with 10% FBS, 100 U/mL penicillin, and 100 μg/mL streptomycin. Compounds were dissolved in DMSO at 1 mM stock solution and were further diluted to 10 μM in the assay medium. 100 μL of this solution was added to the cells to obtain a final compound concentration of 5 μM ([…]). After 18 h incubation, a solution of MTT in assay media (0.5 mg/mL) was added to each well and further incubated for 4-6 hours, followed by addition of cell lysis buffer (15% w/v SDS and 0.12% v/v 12 N HCl aqueous solution), incubation overnight, and then absorbance was measured at 570 nm using 650 nm as reference using Tecan Infinite M200 plate reader.

SMILES | activity in NF-κB and ISRE assays (in words) (NF-κB and ISRE) | activity at 5 µM (ISRE) | activity at 5 µM (NF-κB) | MTT % Viability (THP-1 cells) | ISRE % Activation (ISRE) | NF-κB % Activation (NF-κB)
CCOc1ccc(S(=O)(=O)Nc2ccc(Cl)c(OC)c2)cc1 [Compound 4, N-(4-chloro-3-methoxyphenyl)-4-ethoxybenzenesulfonamide] | complete loss of activity; also recorded: significant loss of activity | 99% | 126% | 83.7% |  | 
CCOc1ccc(S(=O)(=O)Nc2ccc(Cl)cc2OC)cc1 [Compound 5, N-(4-chloro-2-methoxyphenyl)-4-ethoxybenzenesulfonamide] | complete loss of activity; also recorded: significant loss of activity | 109% | 141% | 78.3% |  | 
CCOc1ccc(S(=O)(=O)Nc2cc(OC)ccc2OC)cc1 [Compound 6, N-(2,5-dimethoxyphenyl)-4-ethoxybenzenesulfonamide] | retained activity | 96% | 116% | 73.1% |  | 
COc1cc(NS(=O)(=O)c2ccc(C(=O)O)cc2)c(OC)cc1Cl [Compound 28, 4-(N-(4-chloro-2,5-dimethoxyphenyl)sulfamoyl)benzoic acid] | lost activity |  |  | 98.2% |  | 
CCOc1ccc(NS(=O)(=O)c2cc(OC)c(Cl)cc2OC)cc1 [Compound 31, 4-Chloro-N-(4-ethoxyphenyl)-2,5-dimethoxybenzenesulfonamide] | inactivity |  |  |  |  | 
CCCCCCCCCCCCN(c1cc(OC)c(Cl)cc1OC)S(=O)(=O)c1ccc(OCC)cc1 [Compound 39, N-(4-chloro-2,5-dimethoxyphenyl)-4-ethoxy-N-dodecylbenzenesulfonamide] |  | 100% | 97% | 93.0% |  | 
C#CCN(c1cc(OC)c(Cl)cc1OC)S(=O)(=O)c1ccc(OCC)cc1 [Compound 42, N-(4-chloro-2,5-dimethoxyphenyl)-4-ethoxy-N-(prop-2-yn-1-yl) benzenesulfonamide] |  |  |  | 72.0% | 213% | 232%
C#CCCN(c1cc(OC)c(Cl)cc1OC)S(=O)(=O)c1ccc(OCC)cc1 [Compound 43, N-(but-3-yn-1-yl)-N-(4-chloro-2,5-dimethoxyphenyl)-4-ethoxybenzenesulfonamide] |  | 201% | 206% | 70.1% |  | 
C#CCCCN(c1cc(OC)c(Cl)cc1OC)S(=O)(=O)c1ccc(OCC)cc1 [Compound 44, N-(4-chloro-2,5-dimethoxyphenyl)-4-ethoxy-N-(pent-4-yn-1-yl) benzenesulfonamide] |  |  |  | 70.7% | 184% | 182%
CCOC(=O)CCCN(c1cc(OC)c(Cl)cc1OC)S(=O)(=O)c1ccc(OCC)cc1 [Compound 50, Ethyl 4-((N-(4-chloro-2,5-dimethoxyphenyl)-4-ethoxyphenyl)sulfonamido)butanoate] |  | 199% | 199% | 80.1% |  | 
CCOc1ccc(S(=O)(=O)N(CCCC(=O)O)c2cc(OC)c(Cl)cc2OC)cc1 [Compound 53, 4-((N-(4-chloro-2,5-dimethoxyphenyl)-4-ethoxyphenyl)sulfonamido)butanoic acid] |  | 151% | 230% | 73.4% |  | 
CCOc1ccc(S(=O)(=O)Nc2cc(OC)c(N=[N+]=[N-])cc2OC)cc1 [Compound 59, N-(4-azido-2,5-dimethoxyphenyl)-4-ethoxybenzenesulfonamide] | potent |  |  | 76.6% |  | 
COc1ccc(S(=O)(=O)Nc2cc(OC)c(Cl)cc2OC)cc1N [Compound 60, 3-Amino-N-(4-chloro-2,5-dimethoxyphenyl)-4-methoxybenzenesulfonamide] | resurgence of activity |  |  | 77.3% |  | 
COc1cc(NS(=O)(=O)c2ccc(OC)c(N=[N+]=[N-])c2)c(OC)cc1Cl [Compound 61, 3-Azido-N-(4-chloro-2,5-dimethoxyphenyl)-4-methoxybenzenesulfonamide] | inactive |  |  | 87.2% |  | 
